Laboratory results reported in PubChem BioAssay AID248 (DTP/NCI, 2004).
Values joined by “and” are separate entries in the source; they are usually repeats but may differ in a detail not shown here. Equal values may be shown once. Toxic doses and inconclusive results are not listed. Rule as the data show it: active = T/C of 150% or more; inactive = T/C below 125%.

Tested on: L1210 leukemia ip in BDF1 mice, survival T/C
Assay: NCI In Vivo Anticancer Drug Screen. Data for tumor model L1210 Leukemia (intraperitoneal) in B6D2F1 (BDF1) mice
Details: endpoint: mean survival time, higher = longer survival
In short: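 Transplantable tumor model; survival measured in treated vs vehicle control mice. Value = treated/control.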

[1] = dose: 50.0 mg/kg/injection, schedule: Q04DX003 (ip), vehicle: Klucel (hydroxypropylcellulose) (HPC)
[2] = dose: 100.0 mg/kg/injection, schedule: Q01DX001 (ip), vehicle: saline
[3] = dose: 100.0 mg/kg/injection, schedule: Q04DX002 (ip), vehicle: saline with Tween-80
[4] = dose: 200.0 mg/kg/injection, schedule: Q04DX002 (ip), vehicle: saline with Tween-80
[5] = dose: 100.0 mg/kg/injection, schedule: Q01DX001 (ip), vehicle: carboxymethylcellulose (CMC)
[6] = dose: 200.0 mg/kg/injection, schedule: Q01DX001 (ip), vehicle: carboxymethylcellulose (CMC)
[7] = dose: 400.0 mg/kg/injection, schedule: Q01DX001 (ip), vehicle: carboxymethylcellulose (CMC)
[8] = dose: 5.0 mg/kg/injection, schedule: Q01DX001 (ip), vehicle: saline
[9] = dose: 10.0 mg/kg/injection, schedule: Q01DX001 (ip), vehicle: saline
[10] = dose: 20.0 mg/kg/injection, schedule: Q01DX001 (ip), vehicle: saline
[11] = dose: 20.0 mg/kg/injection, schedule: Q04DX003 (ip), vehicle: saline
[12] = dose: 100.0 mg/kg/injection, schedule: Q01DX009 (ip), vehicle: saline with Tween-80
[13] = dose: 200.0 mg/kg/injection, schedule: Q01DX009 (ip), vehicle: saline with Tween-80
[14] = dose: 400.0 mg/kg/injection, schedule: Q01DX009 (ip), vehicle: saline with Tween-80
[15] = dose: 100.0 mg/kg/injection, schedule: Q04DX003 (ip), vehicle: saline with Tween-80
[16] = dose: 200.0 mg/kg/injection, schedule: Q04DX003 (ip), vehicle: saline with Tween-80
[17] = dose: 400.0 mg/kg/injection, schedule: Q04DX003 (ip), vehicle: saline with Tween-80

Measured: T/C

BrCCC[P+](c1ccccc1)(c1ccccc1)c1ccccc1
inactive: dose: 12.5 mg/kg/injection, schedule: Q01DX009 (ip), vehicle: saline with Tween-80 103 % of control | dose: 25.0 mg/kg/injection, schedule: Q04DX003 (ip), vehicle: saline with Tween-80 97 % of control | dose: 50.0 mg/kg/injection, schedule: Q01DX001 (ip), vehicle: saline 104 % of control | [1] 107 % of control | dose: 50.0 mg/kg/injection, schedule: Q04DX003 (ip), vehicle: saline with Tween-80 97 % of control | [2] 116 % of control

CN(C)/N=C\c1cccc2ccccc12
inactive: [3] 96 % of control | [4] 92 % of control | dose: 400.0 mg/kg/injection, schedule: Q04DX002 (ip), vehicle: saline with Tween-80 92 % of control

Clc1ccc(N(c2ccccc2)c2ccccc2)cc1
inactive: [5] 115 % of control | [6] 100 % of control | [7] 108 % of control

CCCC(C(N)=O)N(CCO)CCO (stereo not given)
inactive: dose: 100.0 mg/kg/injection, schedule: Q04DX002 (ip), vehicle: saline 90 % of control | dose: 200.0 mg/kg/injection, schedule: Q04DX002 (ip), vehicle: saline 90 % of control | dose: 400.0 mg/kg/injection, schedule: Q04DX002 (ip), vehicle: saline 90 % of control

CC(=O)Nc1nc(SCc2ccccc2)c2c(no[n+]2[O-])n1
inactive: [3] 97 % of control | [4] 116 % of control

NC(=O)c1ccc(NC(=O)/C=C/C(=O)Nc2ccc(C(N)=O)cn2)nc1
inactive: dose: 1.0 mg/kg/injection, schedule: Q01DX001 (ip), vehicle: saline 100 % of control | dose: 1.0 mg/kg/injection, schedule: Q01DX Z (ip), vehicle: saline 101 % of control and 105 % of control and 113 % of control | dose: 2.0 mg/kg/injection, schedule: Q01DX001 (ip), vehicle: saline 100 % of control | dose: 2.0 mg/kg/injection, schedule: Q01DX Z (ip), vehicle: saline 87 % of control | dose: 4.0 mg/kg/injection, schedule: Q01DX001 (ip), vehicle: saline 100 % of control | dose: 4.0 mg/kg/injection, schedule: Q01DX Z (ip), vehicle: saline 99 % of control | [8] 107 % of control | dose: 5.0 mg/kg/injection, schedule: Q04DX003 (ip), vehicle: saline 107 % of control | dose: 8.0 mg/kg/injection, schedule: Q01DX001 (ip), vehicle: saline 102 % of control | dose: 8.0 mg/kg/injection, schedule: Q01DX Z (ip), vehicle: saline 107 % of control and 91 % of control | [9] 98 % of control | dose: 11.25 mg/kg/injection, schedule: Q01DX009 (ip), vehicle: saline 93 % of control | dose: 13.0 mg/kg/injection, schedule: Q04DX003 (ip), vehicle: acetone 104 % of control | dose: 13.0 mg/kg/injection, schedule: Q04DX003 (ip), vehicle: saline 109 % of control | [10] 104 % of control | dose: 20.0 mg/kg/injection, schedule: Q04DX003 (ip), vehicle: acetone 109 % of control | [11] 109 % of control | dose: 30.0 mg/kg/injection, schedule: Q04DX003 (ip), vehicle: acetone 98 % of control | dose: 30.0 mg/kg/injection, schedule: Q04DX003 (ip), vehicle: saline 109 % of control | dose: 45.0 mg/kg/injection, schedule: Q04DX003 (ip), vehicle: saline 88 % of control

CCCCCCCCCCSC#N
inactive: [8] 103 % of control | [9] 97 % of control | [10] 105 % of control | dose: 20.0 mg/kg/injection, schedule: Q01DX009 (ip), vehicle: saline 111 % of control | [11] 100 % of control | dose: 40.0 mg/kg/injection, schedule: Q01DX001 (ip), vehicle: saline 97 % of control | dose: 40.0 mg/kg/injection, schedule: Q01DX009 (ip), vehicle: saline 106 % of control | dose: 40.0 mg/kg/injection, schedule: Q04DX003 (ip), vehicle: saline 100 % of control | dose: 80.0 mg/kg/injection, schedule: Q01DX009 (ip), vehicle: saline 100 % of control | dose: 80.0 mg/kg/injection, schedule: Q04DX003 (ip), vehicle: saline 101 % of control

NC(=O)NC1OC(CO)C(O)C(O)C1O (stereo not given)
inactive: dose: 100.0 mg/kg/injection, schedule: Q01DX009 (ip), vehicle: saline 95 % of control | dose: 200.0 mg/kg/injection, schedule: Q01DX009 (ip), vehicle: saline 94 % of control | dose: 400.0 mg/kg/injection, schedule: Q01DX009 (ip), vehicle: saline 86 % of control

NCCCCCc1ccccc1
inactive: dose: 50.0 mg/kg/injection, schedule: Q04DX003 (ip), vehicle: saline 109 % of control

CC1C(=O)CC(C)(C)CC1=O
inactive: [12] 105 % of control | [13] 109 % of control | [14] 104 % of control

O=[N+]([O-])c1ccc(OCn2ncc3ccc([N+](=O)[O-])cc32)cc1
inactive: [5] 93 % of control | [6] 98 % of control | [7] 88 % of control

CC(C)CC(C=NCC(CCN1CCOCC1)(CC(C)C)c1cccc2ccccc12)(CCN1CCOCC1)c1cccc2ccccc12 (stereo not given)
inactive: dose: 100.0 mg/kg/injection, schedule: Q01DX009 (ip), vehicle: Klucel (hydroxypropylcellulose) (HPC) 94 % of control | dose: 200.0 mg/kg/injection, schedule: Q01DX009 (ip), vehicle: Klucel (hydroxypropylcellulose) (HPC) 90 % of control | dose: 400.0 mg/kg/injection, schedule: Q01DX009 (ip), vehicle: Klucel (hydroxypropylcellulose) (HPC) 92 % of control

Oc1ccc2ccccc2c1C=Nc1cccc(Cl)c1
inactive: [1] 103 % of control | dose: 100.0 mg/kg/injection, schedule: Q01DX001 (ip), vehicle: Klucel (hydroxypropylcellulose) (HPC) 113 % of control | dose: 100.0 mg/kg/injection, schedule: Q04DX003 (ip), vehicle: Klucel (hydroxypropylcellulose) (HPC) 101 % of control | dose: 200.0 mg/kg/injection, schedule: Q01DX001 (ip), vehicle: Klucel (hydroxypropylcellulose) (HPC) 107 % of control | dose: 200.0 mg/kg/injection, schedule: Q04DX003 (ip), vehicle: Klucel (hydroxypropylcellulose) (HPC) 98 % of control | dose: 400.0 mg/kg/injection, schedule: Q01DX001 (ip), vehicle: Klucel (hydroxypropylcellulose) (HPC) 101 % of control

CCOC(=O)CC1CCN(C(=O)c2ccccc2)C(Cc2c[nH]c3ccccc23)C1=O (stereo not given)
inactive: [2] 95 % of control | dose: 200.0 mg/kg/injection, schedule: Q01DX001 (ip), vehicle: saline 94 % of control | dose: 400.0 mg/kg/injection, schedule: Q01DX001 (ip), vehicle: saline 94 % of control

CCCCC(=O)N/N=C\c1cc(Cl)ccc1[N+](=O)[O-]
inactive: [5] 96 % of control | [6] 91 % of control | [7] 96 % of control

CCCSCCN=C(N)C(N)=NCCSCCC
inactive: dose: 25.0 mg/kg/injection, schedule: Q04DX002 (ip), vehicle: saline with Tween-80 88 % of control | dose: 50.0 mg/kg/injection, schedule: Q04DX002 (ip), vehicle: saline with Tween-80 95 % of control | [3] 97 % of control and 101 % of control

COC(=O)CCC(=O)Nc1ccccc1
inactive: [15] 101 % of control | [16] 95 % of control | [17] 95 % of control

Nc1nc(SCCc2ccccc2)c2[nH]cnc2n1
inactive: dose: 125.0 mg/kg/injection, schedule: Q01DX Z (ip), vehicle: carboxymethylcellulose (CMC) 97 % of control | dose: 200.0 mg/kg/injection, schedule: Q01DX Z (ip), vehicle: carboxymethylcellulose (CMC) 123 % of control | dose: 250.0 mg/kg/injection, schedule: Q01DX Z (ip), vehicle: carboxymethylcellulose (CMC) 100 % of control | dose: 500.0 mg/kg/injection, schedule: Q01DX Z (ip), vehicle: carboxymethylcellulose (CMC) 106 % of control | dose: 1000.0 mg/kg/injection, schedule: Q01DX Z (ip), vehicle: carboxymethylcellulose (CMC) 93 % of control

CN(C)c1ccc(N=Nc2ccc(C(C)(C)C)cc2)cc1
inactive: [12] 97 % of control | [15] 95 % of control | [13] 94 % of control | [16] 86 % of control | [14] 89 % of control | [17] 96 % of control

CN(C)c1ccc(C=NCCN=Cc2ccc(N(C)C)cc2)cc1
inactive: [15] 98 % of control | [16] 106 % of control | [17] 95 % of control

COC(=O)CC(C)C(C)(C)[N+](=O)[O-] (stereo not given)
inactive: dose: 50.0 mg/kg/injection, schedule: Q01DX009 (ip), vehicle: saline with Tween-80 92 % of control | [12] 92 % of control | [13] 92 % of control
